Data on 19 compounds can be found in patent US8637505B2, “Cyclic inhibitors of 11beta-hydroxysteroid dehydrogenase 1” (Boehringer Ingelheim International GmbH, priority 2009, dated 2014).

Where two headings read alike, the source gives them in different places.

The target of this experiment is T1, 11β-HSD1 (Homo sapiens, UniProt P28845).
T1 construct: detecting cortisol generated from cortisterone by human liver microsomes; from tissue; host or cells: human liver microsomes
The experiment can be described thus: In vitro inhibition of 11β-HSD1, HTRF detection of cortisol generated by human liver microsomes. Format: biochemical. To be noted: for remaining activity at 0.1 µM: read-out: Average % control inhibition at 100 nM. As for the experimental part: The ratio of the two emission signals is then calculated (Em665*10000/Em615).
In general terms: TR-FRET usually uses a lanthanide donor and a delayed reading to cut background.

Setting [1] is: at 100 nM, 100% indicates no inhibition, zero or below zero indicates complete inhibition, Biological Test Example B.
The mark [2] stands for this setting: at 100 nM, 100% indicates no inhibition, zero or below zero indicates complete inhibition, Biological Test Example C.
Where [3] appears, read: at 100 nM, 100% indicates no inhibition, zero or below zero indicates complete inhibition, Biological Test Example D.

T1 sequence (P28845 whole entry): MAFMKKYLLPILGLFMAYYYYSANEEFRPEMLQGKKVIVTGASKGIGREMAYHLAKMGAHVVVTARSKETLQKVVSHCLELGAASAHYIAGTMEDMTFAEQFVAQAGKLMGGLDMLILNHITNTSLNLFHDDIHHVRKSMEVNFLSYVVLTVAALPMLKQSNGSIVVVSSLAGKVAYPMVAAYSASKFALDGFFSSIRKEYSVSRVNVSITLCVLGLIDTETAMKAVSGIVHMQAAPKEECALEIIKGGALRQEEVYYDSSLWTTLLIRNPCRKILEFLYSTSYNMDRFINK

With `Cc1noc(C)c1-c1ccc([C@H](C)N2CC[C@](CC(C)(C)O)(c3ccccc3)OC2=O)cc1` [Example 10, 3-{(S)-1-[4-(3,5-Dimethyl-isoxazol-4-yl)-phenyl]-ethyl}-(S)-6-(2-hydroxy-2-methyl-propyl)-6-phenyl-[1,3]oxazinan-2-one], the remaining activity at 0.1 µM was 20%. On to “(S)-6-(2-Hydroxy-2-methyl-propyl)-6-phenyl-3-{(S)-1-[4′-(alkoxy)-biphenyl-4-yl]-ethyl}-[1,3]oxazinan-2-one [Example B1]”, for which, under setting [1], the “Average % control inhibition at 100 nM” value is 0%. Regarding `C[C@@H](c1ccc(-c2ncon2)cc1)N1CC[C@](CC(C)(C)O)(c2ccccc2)OC1=O` [Example 7, (S)-6-(2-Hydroxy-2-methyl-propyl)-3-[(S)-1-(4-[1,2,4]oxadiazol-3-yl-phenyl)-ethyl]-6-phenyl-[1,3]oxazinan-2-one], the remaining activity at 0.1 µM turned out to be 50%.

For the compound `C[C@@H](c1ccc(-c2ccsc2)cc1)N1CC[C@](CC(C)(C)O)(c2ccccc2)OC1=O` [Example 11, (S)-6-(2-Hydroxy-2-methyl-propyl)-6-phenyl-3-[(S)-1-(4-thiophen-3-yl-phenyl)-ethyl]-[1,3]oxazinan-2-one], the remaining activity at 0.1 µM stood at 13%. Same read-out and setting: with `C[C@@H](c1ccc(C(N)=O)cc1)N1CC[C@](CC(C)(C)O)(c2ccccc2)OC1=O` [Example 8, 4-{(S)-1-[(S)-6-(2-Hydroxy-2-methyl-propyl)-2-oxo-6-phenyl-[1,3]oxazinan-3-yl]-ethyl}-benzamide] the figure was 92%. In the case of `COC(=O)COc1ccc(-c2ccc([C@H](C)N3CC[C@](CC(C)(C)O)(c4ccccc4)OC3=O)cc2)cc1` [Example B2, (4′-{(S)-1-[(S)-6-(2-Hydroxy-2-methyl-propyl)-2-oxo-6-phenyl-[1,3]oxazinan-3-yl]-ethyl}-biphenyl-4-yloxy)-acetic acid methyl ester], the remaining activity at 0.1 µM under setting [1] was found to be 18%. For the compound `Cc1nnc(-c2ccc([C@H](C)N3CC[C@](CC(C)(C)O)(c4ccccc4)OC3=O)cc2)o1` [Example 3, (S)-6-(2-hydroxy-2-methyl-propyl)-3-{(S)-1-[4-(5-methyl-[1,3,4]oxadiazol-2-yl)-phenyl]-ethyl}-6-phenyl-[1,3]oxazinan-2-one], the remaining activity at 0.1 µM amounted to 38%. Regarding “(S)-6-(2-Hydroxy-2-methyl-propyl)-6-phenyl-3-((S)-1-{4-[2-(alkoxy)-pyridin-4-yl]-phenyl}-ethyl)-[1,3]oxazinan-2-one [Example E1]”, the “Average % control inhibition at 100 nM” value (at 100 nM, 100% indicates no inhibition, zero or below zero indicates complete inhibition, Biological Test Example E) is 25%. Take `C[C@@H](c1ccc(C2CCOC2)cc1)N1CC[C@](CC(C)(C)O)(c2ccccc2)OC1=O` (stereo partly drawn) [Example C4, (S)-6-(2-Hydroxy-2-methyl-propyl)-6-phenyl-3-{(S)-1-[4-(tetrahydro-furan-3-yl)-phenyl]-ethyl}-[1,3]oxazinan-2-one]: the remaining activity at 0.1 µM under setting [2] came to 30%. For `Cc1nnc(-c2ccc([C@H](C)N3CC[C@](CC(C)(C)O)(c4ccccc4)OC3=O)cc2)n1C` [Example 2, 3-{(S)-1-[4-(4,5-Dimethyl-4H-[1,2,4]triazol-3-yl)-phenyl]-ethyl}-(S)-6-(2-hydroxy-2-methyl-propyl)-6-phenyl-[1,3]oxazinan-2-one], the remaining activity at 0.1 µM stood at 95%. As for `C[C@@H](c1ccc(-c2nnco2)cc1)N1CC[C@](CC(C)(C)O)(c2ccccc2)OC1=O` [Example 5, (S)-6-(2-Hydroxy-2-methyl-propyl)-3-[(S)-1-(4-[1,3,4]oxadiazol-2-yl-phenyl)-ethyl]-6-phenyl-[1,3]oxazinan-2-one], the remaining activity at 0.1 µM came to 48%. Same read-out and setting: with `Cc1nnc(-c2ccc([C@H](C)N3CC[C@](CC(C)C)(c4ccccc4)OC3=O)cc2)o1` (stereo in doubt) [Example 1, (S)-6-Isobutyl-3-{1-[4-(5-methyl-[1,3,4]oxadiazol-2-yl)-phenyl]-ethyl}-6-phenyl-[1,3]oxazinan-2-one] the figure was 2%. For the compound `C[C@@H](c1ccc(-c2nnc(C(F)(F)F)s2)cc1)N1CC[C@](CC(C)(C)O)(c2ccccc2)OC1=O` [Example C2, (S)-6-(2-Hydroxy-2-methyl-propyl)-6-phenyl-3-{(S)-1-[4-(5-trifluoromethyl-[1,3,4]thiadiazol-2-yl)-phenyl]-ethyl}-[1,3]oxazinan-2-one], the remaining activity at 0.1 µM under setting [2] came to 60%. As for `C[C@@H](c1ccc(-c2ccc(OCCO)cc2)cc1)N1CC[C@](CC(C)(C)O)(c2ccccc2)OC1=O` [Example D6, 3-{(S)-1-[4′-(2-Hydroxy-ethoxy)-biphenyl-4-yl]-ethyl}-(S)-6-(2-hydroxy-2-methyl-propyl)-6-phenyl-[1,3]oxazinan-2-one], the remaining activity at 0.1 µM under setting [3] was -12%. Consider `C[C@@H](c1ccc(-c2ccco2)cc1)N1CC[C@](CC(C)(C)O)(c2ccccc2)OC1=O` [Example 13, 3-[(S)-1-(4-Furan-2-yl-phenyl)-ethyl]-(S)-6-(2-hydroxy-2-methyl-propyl)-6-phenyl-[1,3]oxazinan-2-one], for which the remaining activity at 0.1 µM was -2%.

Take `Cc1nc(-c2ccc([C@H](C)N3CC[C@](CC(C)(C)O)(c4ccccc4)OC3=O)cc2)no1` [Example 6, (S)-6-(2-Hydroxy-2-methyl-propyl)-3-{(S)-1-[4-(5-methyl-[1,2,4]oxadiazol-3-yl)-phenyl]-ethyl}-6-phenyl-[1,3]oxazinan-2-one]: the remaining activity at 0.1 µM was 40%.

Take `C[C@@H](c1ccc(-c2nc3c(=O)n(C)c(=O)n(C)c3n2C)cc1)N1CC[C@](CC(C)(C)O)(c2ccccc2)OC1=O` [Example 12, 8-(4-{(S)-1-[(S)-6-(2-Hydroxy-2-methyl-propyl)-2-oxo-6-phenyl-[1,3]oxazinan-3-yl]-ethyl}-phenyl)-1,3,9-trimethyl-3,9-dihydro-purine-2,6-dione]: the remaining activity at 0.1 µM was found to be 98%. As for `C[C@@H](c1ccc(-c2ccc(OCC(C)(C)O)cc2)cc1)N1CC[C@](CC(C)(C)O)(c2ccccc2)OC1=O` [Example D7, 3-{(S)-1-[4′-(2-Hydroxy-2-methyl-propoxy)-biphenyl-4-yl]-ethyl}-(S)-6-(2-hydroxy-2-methyl-propyl)-6-phenyl-[1,3]oxazinan-2-one], under setting [3], the remaining activity at 0.1 µM is 3%. Consider `C[C@@H](c1ccc(-c2ccoc2)cc1)N1CC[C@](CC(C)(C)O)(c2ccccc2)OC1=O` [Example 20, 3-[(S)-1-(4-Furan-3-yl-phenyl)-ethyl]-(S)-6-(2-hydroxy-2-methyl-propyl)-6-phenyl-[1,3]oxazinan-2-one], for which the remaining activity at 0.1 µM came out at 10%.
